Experimental data as given in patent US9617310B2 (priority 2013, dated 2017).

What was measured:
[1] = test system: genotype 1b wild-type transient HCV replicon in Huh-7-derived cells; assay: Transient-transfected HCV replicon, genotype 1b wild type; assay type: cell-based; settings: Hepatitis C virus; transient-transfected replicon genotype 1b wild type, 72 h; read-out: EC50 1B WT
[2] = test system: NS3/4a protease inhibitor resistant variant D168A in genotype 1b transient HCV replicon; assay: Transient-transfected HCV replicon, genotype 1b D168A; assay type: cell-based; settings: Hepatitis C virus, 72 h, read-out: EC50 1B D168A
[3] = test system: genotype 1a (H77) wild-type transient HCV replicon in Huh-7-derived cells; assay: Transient-transfected HCV replicon, genotype 1a wild type; assay type: cell-based; settings: Hepatitis C virus; transient-transfected replicon genotype 1a wild type, 72 h; read-out: EC50 1A WT
[4] = test system: genotype 3a transient HCV replicon (S52) in Huh-7-derived cells; assay: Transient-transfected HCV replicon, genotype 3a wild type; assay type: cell-based; settings: Hepatitis C virus; transient-transfected replicon genotype 3a wild type, 72 h; read-out: EC50 3A WT
[5] = test system: NS3/4a protease inhibitor resistant variant R155K in genotype 1a transient HCV replicon; assay: Transient-transfected HCV replicon, genotype 1a R155K; assay type: cell-based; settings: Hepatitis C virus, 72 h, read-out: EC50 1A R155K
[6] = test system: genotype 4a stable HCV replicon (ED43) in Huh-7-derived cells; assay: Stable subgenomic HCV replicon, genotype 4a, Renilla luciferase; assay type: cell-based; settings: Hepatitis C virus, 72 h, read-out: EC50 4A RLUC
Procedure: (§1) Antiviral potency (EC50) was determined in both stable subgenomic HCV replicon cell lines and transient-transfected HCV replicon cells. The term half maximal effective concentration (EC50) refers to the concentration of a drug which induces a response halfway between the baseline and maximum after the exposure time specified below.
(§2) Stable subgenomic HCV replicons for genotype 1a, 1b, 2a, 3a, and 4a were established in Huh-7-derived cells as described by Lohmann et al (Lohmann V, Korner F, Koch J, et al Replication of subgenomic hepatitis C virus RNAs in a hepatoma cell line. Science 1999; 285:119-3). Each stable cell line contains a bicistronic HCV replicon that encodes a humanized Renilla luciferase (hRLuc) reporter gene fused to a selectable neomycin-resistance gene, followed by an EMCV IRES and the NS3-NS5B coding region of HCV. […] Luciferase activity was measured as a marker for intracellular HCV replication levels.
(§3) The genotype 1a stable replicon was derived from the H77 HCV strain and contained adaptive mutations P1496L and S2204I. The genotype 1b stable replicon was derived from the Con1 HCV strain and contained adaptive mutations E1202G, T1280I, and K1846T. […] The genotype 3a stable replicon was derived from the S52 HCV strain and contained adaptive mutations P1121 L, A1198T and S2210I (equivalent to S2204I in genotype 1). The genotype 4a stable replicon was derived from the ED43 HCV strain and contained adaptive mutations Q1691R and S2204I. All replicon cell lines were propagated in Huh-7-derived cells and maintained in Dulbecco's modified Eagle's Medium (DMEM) supplemented with 10% fetal bovine serum (FBS) and 0.5 mg/ml G418.
(§4) To perform EC50 assays, cells from each HCV replicon were dispensed into 384-well plates. Compounds were dissolved in DMSO at a concentration of 10 mM and diluted in DMSO using an automated pipetting instrument. Three-fold serially diluted compounds were directly added to the cells using an automated instrument. DMSO was used as a negative (solvent; no inhibition) control, and a combination of three HCV inhibitors including a protease inhibitor; an NS5A inhibitor and a nucleoside inhibitor was used at concentrations >100×EC50 as a positive control (100% inhibition). Seventy-two hours later, cells were lysed and Renilla luciferase activity were quantified as recommended by the manufacturer (Promega-Madison, Wis.). Non-linear regression was performed to calculate […], values.

[7] = test system: genotype 2a stable HCV replicon (JFH-1) in Huh-7-derived cells; assay: Stable subgenomic HCV replicon, genotype 2a, Renilla luciferase; assay type: cell-based; settings: Hepatitis C virus, stable replicon genotype 2a, 72 h, read-out: EC50 2A RLUC
Procedure: as §1, §2, §3, §4

[8] = test system: genotype 1b stable HCV replicon (Con1) in Huh-7-derived cells; assay: Stable subgenomic HCV replicon, genotype 1b, Renilla luciferase; assay type: cell-based; settings: Hepatitis C virus, stable replicon genotype 1b, 72 h, read-out: EC50 1B RLUC
Procedure: as §1, §2, §3, §4

[9] = test system: genotype 3a stable HCV replicon (S52) in Huh-7-derived cells; assay: Stable subgenomic HCV replicon, genotype 3a, Renilla luciferase; assay type: cell-based; settings: Hepatitis C virus, 72 h, read-out: EC50 3A RLUC
Procedure: as §1, §2, §3, §4

NS3 genotype 1b protease = target: T1, NS3 genotype 1b protease (Hepatitis C virus genotype 1b, UniProt Q9WMX2, E1202G); assay: Ki determination, NS3 protease genotype 1b (fluorogenic depsipeptide substrate); assay type: biochemical; settings: NS3 protease domain genotype 1b, NS4A peptide
T1 construct: Purified NS3 protease domain (amino acids 1-181) of the genotype 1b and 3a virus were generated as above; K3 hexahistidine tag (N); rTEV protease cleavage site (N); made in house; host or cells: E. coli BL21AI
T1 sequence (Q9WMX2 1027-1207 E1202G, other chains not shown): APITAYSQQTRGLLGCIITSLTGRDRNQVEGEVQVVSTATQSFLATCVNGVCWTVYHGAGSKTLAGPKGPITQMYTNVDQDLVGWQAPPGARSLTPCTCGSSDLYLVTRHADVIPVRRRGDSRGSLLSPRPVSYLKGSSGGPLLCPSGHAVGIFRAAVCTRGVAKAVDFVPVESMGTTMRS
From the text: Ki Determination for Genotypes 1b and 3a NS3 Protease.
Purified NS3 protease domain (amino acids 1-181) of the genotype 1b and 3a virus were generated as above. The internally quenched fluorogenic depsipeptide substrate Ac-DED(Edans)-EEAbuψ[COO]ASK(Dabcyl)-NH2 and a synthetic peptide containing the hydrophobic core residues of the NS4A protein cofactor ([…]; NS4A peptide) were obtained from Anaspec, Inc. (San Jose, Calif.). Other chemicals and biochemicals were of reagent grade or better and were purchased from standard suppliers.
Reactions were run at room temperature in buffer consisting of 50 mM HEPES, 40% glycerol, 0.05% Triton X-100, 10 mM DTT, and 10% DMSO. The final assay solutions contained 50 pM NS3 genotype 1b protease or 200 pM genotype 3a protease, 20 μM NS4A peptide, and 4 μM substrate (genotype 1b) or 2 μM substrate (genotype 3a). Inhibitor concentrations varied from 100 nM to 5 pM in 3-fold dilutions, and no-inhibitor controls were included.
Compound dilutions were made in DMSO at 20× final concentration. Reaction mixtures were prepared in 96-well assay plates. A solution of enzyme and NS4A peptide in assay buffer (25 μL volume with both reagents at 4× final concentration) was mixed with 45 μL assay buffer and 5 μL of either inhibitor or DMSO, and pre-incubated at room temperature for 1 hour. The reaction was started by addition of 25 μL substrate solution at 4× final concentration. Plates were mixed vigorously for 5-10 seconds and reactions were allowed to proceed for 90 minutes. Fluorescence was measured every 30 s between 90 and 120 minutes reaction time using a Tecan InfiniTe M1000 or PerkinElmer Envision multimode plate reader with an excitation wavelength of 340 nm and an emission wavelength of 490 nm.
Rates were calculated from the progress curves at steady state, in the time frame of 90-120 minutes after addition of substrate. To determine the Ki, rates were plotted as a function of inhibitor concentration, and the data were fit with equation 1 (Morrison, J. F., Biochimica et Biophysica Acta 1969, 185, 269-286) to calculate Ki^app using GraphPad Prism 5. Active fraction of enzyme was determined by active site titration with known potent inhibitors. Ki was calculated from Ki^app/(1+[[S]/Km]).

SMILES | EC50 [1] | EC50 [2] | EC50 [3] | EC50 [4] | EC50 [5] | EC50 [6] | EC50 [7] | EC50 [8] | EC50 [9] | Ki (NS3 genotype 1b protease)
COc1ccc2cc3c(nc2c1)O[C@@H]1C[C@@H](C(=O)N[C@]2(C(=O)NS(=O)(=O)C4CC4)C[C@H]2C(F)F)N(C1)C(=O)[C@H](C(C)(C)C)NC(=O)O[C@@H]1C[C@@H]2C[C@@H]2[C@H]1CCCCC3 [Example 21, (1aS,2aR,6S,9S,11R,23aR,23bS)-6-tert-butyl-N-[(1R,2R)-1-[(cyclopropylsulfonyl)carbamoyl]-2-(difluoromethyl)cyclopropyl]-15-methoxy-4,7-dioxo-1a,2,2a,4,5,6,7,10,11,19,20,21,22,23,23a,23b-hexadecahydro-1H,9H-8,11-methanocyclopropa[4′,5′]cyclopenta[1′,2′:18,19][1,10,3,6]dioxadiazacyclononadecino[11,12-b]quinoline-9-carboxamide] | 0.61 nM | 22 nM | 1.5 nM | 36 nM | 1.4 nM | 1.4 nM | 3.5 nM | 0.95 nM | 115 nM | 0.02 nM
CC(C)(C)[C@@H]1NC(=O)O[C@@H]2C[C@@H]3C[C@@H]3[C@H]2CCCCCc2nc3ccc(Cl)cc3nc2O[C@@H]2C[C@@H](C(=O)N[C@]3(C(=O)NS(=O)(=O)C4CC4)C[C@H]3C(F)F)N(C2)C1=O [Example 19, (1aS,2aR,6S,9S,11R,23aR,23bS)-6-tert-butyl-15-chloro-N-[(1R,2R)-1-[(cyclopropylsulfonyl)carbamoyl]-2-(difluoromethyl)cyclopropyl]-4,7-dioxo-1a,2,2a,4,5,6,7,10,11,19,20,21,22,23,23a, 23b-hexadecahydro-1H,9H-8,11-methanocyclopropa[4′,5′]cyclopenta[1′,2′:18,19][1,10,3,6]dioxadiazacyclononadecino[11,12-b]quinoxaline-9-carboxamide] | 1.1 nM | 16 nM | 1.3 nM | 17 nM | 1.9 nM | 1.8 nM | 3.1 nM | 1.3 nM | 82 nM | 0.02 nM
CC(C)(C)[C@@H]1NC(=O)O[C@@H]2C[C@@H]3C[C@@H]3[C@H]2CCCCC(F)(F)c2nc3ccccc3nc2O[C@@H]2C[C@@H](C(=O)N[C@]3(C(=O)NS(=O)(=O)C4CC4)C[C@H]3C(F)F)N(C2)C1=O [Example 18] | 1.6 nM | 2.6 nM | 3.6 nM | 4.9 nM | 2.6 nM | 4.2 nM | 2.6 nM | 4.1 nM | 18 nM | 0.01 nM
COc1ccc2nc3c(nc2c1)O[C@@H]1C[C@@H](C(=O)N[C@]2(C(=O)NS(=O)(=O)C4(C)CC4)C[C@H]2C(F)F)N(C1)C(=O)[C@H](C(C)(C)C)NC(=O)O[C@@H]1C[C@@H]2C[C@@H]2[C@H]1CCCCC3(F)F [Example 10, (1aS,2aR,6S,9S,11R,23aR,23bS)-6-tert-butyl-N-[(1R,2R)-2-(difluoromethyl)-1-{[(1-methylcyclopropyl)sulfonyl]carbamoyl}cyclopropyl]-19,19-difluoro-15-methoxy-4,7-dioxo-1a,2,2a,4,5,6,7,10,11,19,20,21,22,23,23a,23b-hexadecahydro-1H,9H-8,11-methanocyclopropa [4′,5′]cyclopenta[1′,2′:18,19][1,10,3,6]dioxadiazacyclononadecino[11,12-b]quinoxaline-9-carboxamide] | 0.75 nM | 1 nM | 1.4 nM | 2.3 nM | 1.3 nM | 1.3 nM | 1.6 nM | 1.4 nM | 4.9 nM | 0.02 nM
CC(C)(C)[C@@H]1NC(=O)O[C@@H]2C[C@@H]3C[C@@H]3[C@H]2CCCCC(F)(F)c2nc3ccccc3nc2O[C@@H]2C[C@@H](C(=O)N[C@]3(C(=O)NS(=O)(=O)C4(C)CC4)C[C@H]3C(F)F)N(C2)C1=O [Example 17] | 1.3 nM | 2.7 nM | 3.3 nM | 7.1 nM | 2.9 nM | 4.8 nM | 2.7 nM | 4.7 nM | 26 nM | 0.01 nM
COc1ccc2nc3c(nc2c1)O[C@@H]1C[C@@H](C(=O)N[C@]2(C(=O)NS(=O)(=O)C4(C)CC4)C[C@H]2C(F)F)N(C1)C(=O)[C@H](C(C)(C)C)NC(=O)O[C@@H]1C[C@@H]2C[C@@H]2[C@H]1CCCCC3 [Example 2, (1aS,2aR,6S,9S,11R,23aR,23bS)-6-tert-butyl-N-[(1R,2R)-2-(difluoromethyl)-1-{[(1-methylcyclopropyl)sulfonyl]carbamoyl}cyclopropyl]-15-methoxy-4,7-dioxo-1a,2,2a,4,5,6,7,10,11,19,20,21,22,23,23a,23b-hexadecahydro-1H,9H-8,11-methanocyclopropa[4′,5′]cyclopenta[1′,2′18,19][1,10,3,6]dioxadiazacyclononadecino[11,12-b]quinoxaline-9-carboxamide] | 0.74 nM | 3.2 nM | 1.1 nM | 5.1 nM | 1.4 nM | 1.2 nM | 1.82 nM | 1 nM | 17 nM | 0.02 nM
